25 compounds from US11236042B2, “Methylmenthol derivative and cool-sensation imparter composition containing same” (TAKASAGO INTERNATIONAL CORPORATION, priority 2017, dated 2022) can be followed below.

One series concerns the target T1, human TRPM8 (Homo sapiens, UniProt Q7Z2W7).
T1 construct: The full-length human TRPM8 gene was amplified from plasmid RC220615 (manufactured by Origene) using a PCR method; host or cells: Flp-In T-REx 293 cells ('Flp-In293293 cells' [sic]), pcDNA5/FRT/TO, doxycycline-induced
In words: Evaluation of human TRPM8 activity (cool-feeling intensity), calcium fluorescence in stable expression cells. The series is classed as cell-based. To be noted: Fluo4-AM, 32° C., read-out: EC50 value in TRPM8 activation action. Here is the method:
It is common that a compound having a cooling effect such as menthol generally induces a cool-feeling by activating melastatin transient receptor potential channel 8 (TRPM8) as a cold stimulation receptor (for example, see J. Neurobiol. (2004), Vol. 61, PP. 3-12). Therefore, in order to evaluate the cool-feeling intensity, EC50 values of the exemplary compounds obtained in the Examples in TRPM8 activation actions were evaluated according to the following procedures.
The full-length human TRPM8 gene was amplified from plasmid RC220615 (manufactured by Origene) using a PCR method. The obtained PCR product was subcloned into pcDNA5/FRT/TO (manufactured by Thermo Fisher Scientific K.K.), and then it was introduced into Flp-In293293 cells (manufactured by Thermo Fisher Scientific K.K.) by using a Flp-InT-REx system (manufactured by Thermo Fisher Scientific K.K.), so that a human TRPM8 stable expression cell line was prepared.
The cultured human TRPM8 stable expression cells were seeded at a ratio of 50,000 cells/well to a poly-D-lysine-coated 96-well microplate (manufactured by Corning Incorporated), 1 μg/mL of doxycycline (manufactured by Takara Bio Inc.) was added thereto, and then the seeded cells were cultured at 37° C. for one night, so that the expression of the human TRPM8 was induced.
The culture solution was replaced with a buffer solution, and then, a fluorescent calcium indicator (Fluo4-AM: manufactured by Dojindo) was added thereto, the cells were incubated at 37° C. for 30 minutes, and they were transferred to a fluorescent microplate reader (FlexStation3: Molecular Devices, LLC.). Exemplary compounds were added in a final concentration range of 0.1 μM to 1000 μM, and the changes in fluorescence having a wavelength of 525 nm when excited at a wavelength of 485 nm were measured at a device temperature of 32° C., so as to calculate EC50 values.

Series [1] can be described thus: Sensory evaluation of 30 ppm aqueous solution by three flavorists. As to conditions: for intensity of cool-feeling: mouth rinsed and spat out; for intensity of cool-feeling compared with comparative compounds: 30 ppm aqueous solutions. It is filed as in vivo, human. Here is the method: The sensory evaluation was performed by comparing the exemplary compound (1-1) with the so far known comparative compounds 1 to 4. Comparative compounds 1, 3, and 4 were synthesized according to the method described in WO 2016/153011 A1, and comparative compound 2 was synthesized according to the method described in WO 2005/020897 A1. The exemplary compound (1-1) and comparative compounds 1 to 4 were separately prepared into a 30 ppm aqueous solution, and the aqueous solution was used to perform the evaluation.
The evaluation was performed by three flavorists. The aqueous solution was taken into the mouth and spat out after the mouth was rinsed, and intensity, persistence, and quality of a cool-feeling in the oral cavity were evaluated.
A 30 ppm aqueous solution of the exemplary compound (1-2) was prepared and used to perform the evaluation.
A 30 ppm aqueous solution of the exemplary compound (1-3) was prepared and used to perform the evaluation.
A 30 ppm aqueous solution of the exemplary compound (1-5) was prepared and used to perform the evaluation.

T1 sequence (Q7Z2W7 whole entry): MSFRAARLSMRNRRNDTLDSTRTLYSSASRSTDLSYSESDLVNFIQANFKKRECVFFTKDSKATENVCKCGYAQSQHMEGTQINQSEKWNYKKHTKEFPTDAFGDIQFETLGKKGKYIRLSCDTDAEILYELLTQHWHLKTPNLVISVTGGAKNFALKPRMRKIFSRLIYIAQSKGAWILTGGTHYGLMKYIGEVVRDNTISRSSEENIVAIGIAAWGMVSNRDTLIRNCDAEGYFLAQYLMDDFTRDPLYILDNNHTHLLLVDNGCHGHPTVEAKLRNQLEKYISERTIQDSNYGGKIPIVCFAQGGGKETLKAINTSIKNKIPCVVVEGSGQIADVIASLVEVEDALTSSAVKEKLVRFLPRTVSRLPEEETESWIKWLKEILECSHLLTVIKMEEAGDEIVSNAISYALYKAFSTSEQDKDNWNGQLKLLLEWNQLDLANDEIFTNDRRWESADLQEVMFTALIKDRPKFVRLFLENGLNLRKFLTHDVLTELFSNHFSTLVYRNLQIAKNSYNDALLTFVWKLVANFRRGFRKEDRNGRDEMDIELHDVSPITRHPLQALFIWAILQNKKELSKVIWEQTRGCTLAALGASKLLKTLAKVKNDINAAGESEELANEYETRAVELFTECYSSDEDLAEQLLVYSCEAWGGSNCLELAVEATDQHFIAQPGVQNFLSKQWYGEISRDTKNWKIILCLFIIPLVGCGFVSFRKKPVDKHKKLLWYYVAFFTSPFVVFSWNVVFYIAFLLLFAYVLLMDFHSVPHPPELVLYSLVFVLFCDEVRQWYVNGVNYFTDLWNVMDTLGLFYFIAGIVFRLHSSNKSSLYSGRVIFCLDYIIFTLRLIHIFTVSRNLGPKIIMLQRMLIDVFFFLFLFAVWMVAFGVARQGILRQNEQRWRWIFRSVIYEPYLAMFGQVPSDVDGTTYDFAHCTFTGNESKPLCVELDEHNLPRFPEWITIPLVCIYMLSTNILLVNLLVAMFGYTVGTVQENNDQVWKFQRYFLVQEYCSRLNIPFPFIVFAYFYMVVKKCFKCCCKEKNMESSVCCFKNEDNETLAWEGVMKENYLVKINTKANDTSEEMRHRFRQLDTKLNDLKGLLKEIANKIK

For orientation: EC50 means the concentration at which the effect is half-maximal. Regarding `CC(C)C1CCC(C)(C)CC1C(=O)NC[C@@H](C)c1ccccc1` (stereo partly shown) [1-7], on human TRPM8, the EC50 turned out to be 555 nM. Still for that read-out and setting: the figure for `CC(C)C1CCC(C)(C)CC1C(=O)NCCc1ccccc1` (stereo not shown) [1-13] is 50.2 nM. For orientation: melting point means the temperature, or range, at which the solid turns liquid. `CC(C)C1CCC(C)(C)CC1C(=O)NC[C@@H](C)c1ccccc1` (stereo partly drawn) [Exemplary Compound 1-7, 2-isopropyl-5,5-dimethyl-N—((S)-2-phenylpropyl) cyclohexane carboxamide]: the melting point lay in the range of 125 to 133 °C.

As to `CC(C)C1CCC(C)(C)CC1C(=O)NCCc1ccc(O)c(O)c1` (stereo not shown) [1-11], the EC50 on human TRPM8 was 113 nM.

For the compound `CC(C)C1CCC(C)(C)CC1C(=O)NCCc1ccc(O)cc1` (stereo not shown) [1-9], at human TRPM8, the concentration giving a half-maximal response (EC50) was found to be 29.8 nM.

With `COc1ccc(CCNC(=O)C2CC(C)(C)CCC2C(C)C)cc1` (stereo not shown) [Exemplary Compound 1-10, 2-isopropyl-N-(4-methoxyphenylethyl)-5,5-dimethyl cyclohexane carboxamide], the melting point lay within 86 to 88 °C.

Regarding `CC(CNC(=O)C1CC(C)(C)CCC1C(C)C)c1ccccc1` (stereo not shown) [Exemplary Compound 1-6, 2-isopropyl-5,5-dimethyl-N-(2-phenylpropyl) cyclohexane carboxamide], the melting point lay within 80 to 85 °C. `COc1ccc(CCNC(=O)C2CC(C)(C)CCC2C(C)C)cc1OC` (stereo not shown) [1-12]: the half-maximal effective concentration (EC50) at human TRPM8 stood at 403 nM. For the compound `CC(C)C1CCC(C)(C)CC1C(=O)NC[C@H](O)c1ccccc1` (stereo partly drawn) [Exemplary Compound 1-3, N—((R)-2-hydroxy-2-phenylethyl)-2-isopropyl-5,5-dimethyl cyclohexane carboxamide], in series [1] (30 ppm aqueous solution), the “persistence: cool-feeling lasted for” value was not below 60 min, the “start of the cool-feeling” value is “strong cool-feeling was felt when the exemplary compound (1-3) was put in the mouth” and the intensity of cool-feeling entry is “very strong”. Take `CC(C)C1CCC(C)(C)CC1C(=O)NC[C@@H](O)c1ccccc1` (stereo partly drawn) [Exemplary Compound 1-2, N—((S)-2-hydroxy-2-phenylethyl)-2-isopropyl-5,5-dimethyl cyclohexane carboxamide]: in series [1] (30 ppm aqueous solution), the “persistence: cool-feeling lasted for” value was not below 90 min, the “start of the cool-feeling” value was “strong cool-feeling was felt when the exemplary compound (1-2) was put in the mouth” and the intensity of cool-feeling result is “very strong”. Turning to `CC(=O)OC(CNC(=O)C1CC(C)(C)CCC1C(C)C)c1ccccc1` (stereo not shown) [1-4], at human TRPM8, the concentration giving a half-maximal response (EC50) is 541 nM. For `CC(C)C1CCC(C)(C)CC1C(=O)NC[C@@H](O)c1ccccc1` (stereo partly shown) [1-2], the EC50 at human TRPM8 is 24.1 nM. For the compound `COc1ccc(CCNC(=O)C2CC(C)(C)CCC2C(C)C)cc1OC` (stereo not shown) [Exemplary Compound 1-12, N-(3,4-dimethoxyphenylethyl)-2-isopropyl-5,5-dimethyl cyclohexane carboxamide], the melting point lay in the range of 85 to 89 °C.

`CC(CNC(=O)C1CC(C)(C)CCC1C(C)C)c1ccccc1` (stereo not shown) [1-6]: the EC50 on human TRPM8 stood at 388 nM.

Turning to `CC(C)C1CCC(C)(C)CC1C(=O)NCC(=O)c1ccccc1` (stereo not shown) [1-5], the EC50 at human TRPM8 is 149 nM.

For `CC(C)C1CCC(C)(C)CC1C(=O)NCC(O)c1ccccc1` (stereo not shown) [1-1], the EC50 on human TRPM8 was determined as 41 nM.

`CC(C)C1CCC(C)(C)CC1C(=O)NC[C@H](C)c1ccccc1` (stereo partly shown) [1-8]: the 50% effective concentration (EC50) on human TRPM8 is 610 nM. `CC(C)[C@@H]1CC[C@@H](C)CC1C(=O)NCC(O)c1ccccc1` (stereo partly shown) [Comparative compound 2, reference compound]: in series [1] (30 ppm aqueous solution), the “persistence of cool-feeling” value was “persistent” and the intensity of cool-feeling result is “very strong”. For the same compound, in series [1], the “intensity of cool-feeling compared with comparative compounds” value was “same cooling intensity and persistence as those of the exemplary compound (1-1)”. As to `CC(C)C1CCC(C)(C)CC1C(=O)NCC(O)c1ccccc1` (stereo not shown) [Exemplary Compound 1-1, N-(2-hydroxy-2-phenylethyl)-2-isopropyl-5,5-dimethyl cyclohexane carboxamide], in series [1] (30 ppm aqueous solution), the “persistence: cool-feeling lasted for” value was not below 60 min, the “start of the cool-feeling” value is on record as “clearly faster than the comparative compounds 1 to 4” and the intensity of cool-feeling entry is listed as “very strong”. For the same compound, the “intensity of cool-feeling compared with comparative compounds” value in series [1] was “clearly stronger than those of the comparative compounds 3 and 4”. With `CC(C)C1CCC(C)(C)CC1C(=O)NCC(=O)c1ccccc1` (stereo not shown) [Exemplary Compound 1-5, 2-isopropyl-5,5-dimethyl-N-(2-oxo-2-phenylethyl) cyclohexane carboxamide], the melting point is 85 to 88 °C. In addition, in series [1] (30 ppm aqueous solution), the “persistence: cool-feeling lasted for” value was not below 60 min, the “start of the cool-feeling” value is “gradually felt strongly” and the intensity of cool-feeling result is on record as “very strongly at the peak time”. Take `CC(C)C1CCC(C)(C)CC1C(=O)NC[C@H](O)c1ccccc1` (stereo partly shown) [1-3]: the EC50 on human TRPM8 is 73.6 nM.

Take `CC(C)C1CCC(C)(C)CC1C(=O)NC[C@H](C)c1ccccc1` (stereo partly drawn) [Exemplary Compound 1-8, 2-isopropyl-5,5-dimethyl-N—((R)-2-phenylpropyl) cyclohexane carboxamide]: the melting point was 127 to 134 °C. Regarding `CC(C)C1CCC(C)(C)CC1C(=O)NCCc1ccccc1` (stereo not shown) [Exemplary Compound 1-13, 2-isopropyl-5,5-dimethyl-N-phenylethyl cyclohexane carboxamide], the melting point was 90 to 93 °C. Still for that read-out and setting: the figure for `CC(C)C1CCC(C)(C)CC1C(=O)NCCc1ccc(O)cc1` (stereo not shown) [Exemplary Compound 1-9, N-(4-hydroxyphenylethyl)-2-isopropyl-5,5-dimethyl cyclohexane carboxamide] is 183 to 190 °C. For the compound `COc1ccc(CCNC(=O)C2CC(C)(C)CCC2C(C)C)cc1` (stereo not shown) [1-10], the EC50 at human TRPM8 was 158 nM.
